Test results reported in patent US20120208809A1, “9H-PYRROLO[2,3-B: 5,4-C'] DIPYRIDINE AZACARBOLINE DERIVATIVES, PREPARATION THEREOF, AND THERAPEUTIC USE THEREOF” (SANOFI, priority 2009, published 2012).

Experiments:
[1] = biological target: T1, Pim-1 (Homo sapiens, UniProt P11309); test: TR-FRET assay of Pim kinase activity (phosphorylation of Bad Ser112), Pim-1; type: biochemical; conditions: ATP 40 μM, read-out: IC50 Pim1
T1 construct: full-length human recombinant His6-labelled Pim-1, Pim-2 or Pim-3 protein; His6; made in house
Outline: (§1)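 Full-length His6-tagged human Pim-1, -2 or -3 phosphorylate full-length His6-Bad at 40 μM ATP; phospho-Ser112 detected by TR-FRET (Eu anti-phosphoBad, APC anti-His6), 665/615 nm ratio. Compounds run at 10 concentrations in duplicate, typically top 30 μM; IC50 from 4-parameter logistic fit.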

[2] = biological target: T2, Pim-2 (Homo sapiens, UniProt Q9P1W9); test: TR-FRET assay of Pim kinase activity (phosphorylation of Bad Ser112), Pim-2; type: biochemical; conditions: ATP 40 μM, read-out: IC50 Pim2
T2 construct: full-length human recombinant His6-labelled Pim-1, Pim-2 or Pim-3 protein; His6; made in house
Outline: as §1

[3] = biological target: T3, Pim-3 (Homo sapiens, UniProt Q86V86); test: TR-FRET assay of Pim kinase activity (phosphorylation of Bad Ser112), Pim-3; type: biochemical; conditions: ATP 40 μM, read-out: IC50 Pim3
T3 construct: full-length human recombinant His6-labelled Pim-1, Pim-2 or Pim-3 protein; His6; made in house
Outline: as §1

[4] = biological target: CDK1 (Homo sapiens, UniProt P06493); test: Biochemical results, IC50 CDK1
[5] = biological target: PLK1 (Homo sapiens, UniProt P53350); test: Biochemical results, IC50 PLK1
[6] = tested on: EOL-1; test: Cell viability assay (CellTiter-Blue), EOL-1; type: cell-based; conditions: Homo sapiens, EOL1, read-out: EC50 EOL-1 μM (eosinophilic leukaemia), EOL-1 cells, read-out: EC50 EOL-1 μM (lymphoma);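 also: EOL-1 is an acute myeloid eosinophilic leukaemia line not a lymphoma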
From the text: (§2) The representative compounds of the invention are also screened as regards their effects on cell proliferation and viability, using a variety of tumoral cell lines of human source, representative of different pathological indications. These cell lines include:
Models of Haematological Cancers: • TF-1 (acute myelogenic leukaemia; AML M6 at the time of diagnosis); • K G-1 (AML; erythroleukaemia evolving into AML); • KG-1a (AML; subclone derived from immature KG-1); • EOL-1 (AML: eosinophilic leukaemia); • PL-21 (AML; M3); • ML-2 (AML; T-NHL evolving into T-ALL evolving into AML M4); • HL-60 (AML, M3); • Kasumi-1 (AML); • GDM-1 (AML); • K-562 (CML—chronic myelogenic leukaemia; blastic crisis); • JURL-MK1 (CML; blastic crisis); • DND-41 (T-ALL—T-cell acute lymphoblastic leukaemia); • Jurkat (T-ALL); NALM-6 (B-ALL B-cell ALL); • CEM (ALL; lymphosarcoma evolving into ALL); • Jeko-1 (B-NHL—B-cell non-Hodgkin lymphoma; lymphoma with coat cells derived from a large-cell variant in leukaemic transformation); • WSU-DLCL2 (B-NHL; diffuse lymphoma with large B cells); • RL (B-NHL; undifferentiated diffuse); • OCl-Ly10 (B-NHL); • DoHH-2 (B-NHL); • RPMI-8226 (MM—multiple myelomas); • JVM-2 (B-CLL—B-cell chronic lymphocytic leukaemia); and • JVM-3 (B-CLL).
(§3) In order to measure the viability, the tumour cells are incubated in 96-well or 384-well format for 48, 72 or 96 hours, preferably 72 hours, with a compound of the invention at dilutions of a factor 3, with, in general, nine doses in total, the highest dose being equal to 10 μM or 30 μM. The cell viability is evaluated by adding CellTiter-Blue® (Promega, Madison, Wis., United States) for 4 hours and endpoint readings are taken using a SpectraMax Genmini EM plate reader (Molecular Devices, Sunnyvale, Calif., United States). The CellTiter-Blue® cell viability assay measures the ability of the cells in culture to reduce resazurin to resorufin, the intensity of the fluorescence signal being directly proportional to the number of live cells. The EC50 represents the concentration of compound that leads to a 50% reduction of the viability/proliferative expansion of the cells.

[7] = tested on: MV4-11; test: Cell viability assay (CellTiter-Blue), MV4-11; type: cell-based; conditions: Homo sapiens, read-out: EC50 MV4-11 μM (acute myeloid leukemia), MV4-11 cells, read-out: EC50 MV4-11 μM (myeloma)
Description: as §2, §3

[8] = tested on: MOLM-13; test: Cell viability assay (CellTiter-Blue), MOLM-13; type: cell-based; conditions: Homo sapiens, read-out: EC50 MOLM-13 μM, MOLM-13 cells, read-out: EC50 MOLM-13 μM (myeloma)
Description: as §2, §3

[9] = tested on: phosphoBAD (JEKO); test: Level of phosphorylation of Bad by ELISA, JEKO cell line; type: cell-based; conditions: Homo sapiens, JEKO cells, 3 hours at 37° C.
Description: The activity of the molecules is evaluated on the JEKO or DND-41 cell line by measuring the level of phosphorylation of Bad and the total Bad content, via the ELISA technique.
The JEKO or DND-41 cells are resuspended at a concentration of 500 000 cells per ml. The cells are then diluted in RPMI-1640 medium containing 20% foetal calf serum. 225 μl of cells are placed in a plate. Serial dilutions of the molecules are then performed (8 points, three-fold dilution, range started at 10 mM). Each dilution point is then diluted to 1/100 in medium. Next, 25 μl of each of the concentrations are added to the cells and then incubated for 3 hours at 37° C.
100 μl of the cells are transferred into a plate treated with poly-D-Lysine. The plate is then incubated for 5-10 minutes at 37° C. and then centrifuged for 5 minutes at 1500 rpm. A volume of 100 μl of 8% fixing solution (solution of formaldehyde in PBS buffer) is added to each of the wells. After covering with a self-adhesive film and a lid, the plate is incubated for 20 minutes at room temperature and then stored at 4° C. overnight.
Next, the liquid is removed and two successive washes are performed with washing buffer. 100 μl of quenching buffer are added, followed by incubating for 15 minutes at room temperature. After washing, 100 μl of […] at room temperature. After washing, 50 μl of primary antibody diluted to 1/250 for pBAD (Cell Signaling Cat#5284) and to 1/500 for Bad (MBL Cat#591) are added to each of the plates. Each plate is incubated for 2 hours at room temperature. After two washes, 50 μl of secondary antibody (diluted to 1/16) are added to the pBAD plate (tebu-bio ref; FE-021) and 50 μl of the HRP-conjugated IgG secondary antibody (Santa Cruz Cat #SC-2004; diluted to 1/1000) are added to the Bad plate. Incubation for 1 hour at room temperature is performed. Four washes with the washing solution are performed, followed by three washes with PBS. Finally, 100 μl of the developing solution are added, followed by incubation for 10 minutes. Finally, 100 μl of the quenching solution are added, before reading at 450 nm.

Chain of PLK1 (P53350 whole entry, species assumed): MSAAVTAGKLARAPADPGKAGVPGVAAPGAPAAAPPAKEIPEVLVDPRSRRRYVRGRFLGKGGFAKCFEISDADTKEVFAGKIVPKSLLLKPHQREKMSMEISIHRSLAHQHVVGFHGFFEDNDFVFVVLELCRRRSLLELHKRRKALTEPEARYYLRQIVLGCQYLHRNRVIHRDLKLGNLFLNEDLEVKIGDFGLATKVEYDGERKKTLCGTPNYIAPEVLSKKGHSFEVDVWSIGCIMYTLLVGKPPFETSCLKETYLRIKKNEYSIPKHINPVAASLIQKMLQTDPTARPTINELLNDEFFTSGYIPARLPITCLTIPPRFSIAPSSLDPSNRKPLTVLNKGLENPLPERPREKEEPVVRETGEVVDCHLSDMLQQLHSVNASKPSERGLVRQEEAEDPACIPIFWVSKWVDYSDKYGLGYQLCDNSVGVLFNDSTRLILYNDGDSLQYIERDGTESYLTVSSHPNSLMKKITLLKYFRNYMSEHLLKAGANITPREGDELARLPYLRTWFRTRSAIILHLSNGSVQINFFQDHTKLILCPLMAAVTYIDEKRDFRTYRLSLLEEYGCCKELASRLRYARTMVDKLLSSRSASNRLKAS
Chain of CDK1 (P06493 whole entry, species assumed): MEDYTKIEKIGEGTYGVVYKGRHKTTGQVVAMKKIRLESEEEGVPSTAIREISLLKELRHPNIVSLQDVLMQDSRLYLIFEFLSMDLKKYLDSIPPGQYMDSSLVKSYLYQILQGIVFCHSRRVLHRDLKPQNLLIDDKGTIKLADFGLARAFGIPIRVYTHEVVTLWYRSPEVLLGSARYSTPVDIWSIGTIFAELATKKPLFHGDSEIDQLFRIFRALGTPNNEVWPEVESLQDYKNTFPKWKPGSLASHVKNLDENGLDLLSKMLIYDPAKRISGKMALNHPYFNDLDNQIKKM
Chain of CDK1 (P14635 whole entry partner, species assumed): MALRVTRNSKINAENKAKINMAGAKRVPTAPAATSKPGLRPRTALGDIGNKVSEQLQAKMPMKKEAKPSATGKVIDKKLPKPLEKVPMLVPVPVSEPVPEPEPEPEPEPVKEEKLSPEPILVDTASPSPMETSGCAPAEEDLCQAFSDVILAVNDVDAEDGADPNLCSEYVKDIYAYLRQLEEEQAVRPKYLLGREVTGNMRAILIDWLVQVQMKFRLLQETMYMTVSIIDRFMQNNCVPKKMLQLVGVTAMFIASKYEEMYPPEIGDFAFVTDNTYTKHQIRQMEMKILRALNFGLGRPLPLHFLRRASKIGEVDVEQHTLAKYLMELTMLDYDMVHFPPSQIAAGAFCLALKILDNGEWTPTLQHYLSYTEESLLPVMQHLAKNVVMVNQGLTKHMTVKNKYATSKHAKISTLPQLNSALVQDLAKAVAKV
T1 sequence (P11309 whole entry): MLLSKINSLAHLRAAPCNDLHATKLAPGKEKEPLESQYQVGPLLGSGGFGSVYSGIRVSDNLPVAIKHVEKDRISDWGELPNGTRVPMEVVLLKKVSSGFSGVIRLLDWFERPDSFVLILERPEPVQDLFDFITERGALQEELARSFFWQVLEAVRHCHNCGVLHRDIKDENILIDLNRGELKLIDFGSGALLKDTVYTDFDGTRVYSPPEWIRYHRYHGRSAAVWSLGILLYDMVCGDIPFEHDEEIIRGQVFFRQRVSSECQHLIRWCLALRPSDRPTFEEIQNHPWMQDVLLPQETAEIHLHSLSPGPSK
T2 sequence (Q9P1W9 whole entry): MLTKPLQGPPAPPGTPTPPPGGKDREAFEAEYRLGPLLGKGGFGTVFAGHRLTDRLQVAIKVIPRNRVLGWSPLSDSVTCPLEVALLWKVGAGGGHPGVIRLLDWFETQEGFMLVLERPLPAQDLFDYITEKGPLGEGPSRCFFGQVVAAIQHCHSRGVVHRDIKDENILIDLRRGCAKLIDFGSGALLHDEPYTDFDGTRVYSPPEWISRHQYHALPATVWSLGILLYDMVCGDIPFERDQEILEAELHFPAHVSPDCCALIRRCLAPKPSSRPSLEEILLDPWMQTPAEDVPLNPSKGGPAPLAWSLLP

SMILES | IC50 [1] [µM] | IC50 [2] [µM] | IC50 [3] [µM] | IC50 [4] [µM] | IC50 [5] [µM] | EC50 [6] [µM] | EC50 [7] [µM] | EC50 [8] [µM] | IC50 [9] [µM]
CN1CCN(NC(=O)c2ccc(-c3c(F)cnc4[nH]c5cnc(-c6cccnc6)cc5c34)cc2)CC1 [Example 7, 4-[3-fluoro-6-(pyridin-3-yl)-9H-pyrrolo[2,3-b:5,4-c′]dipyridin-4-yl]-N-(4-methylpiperazin-1-yl)benzamide] | < 0.1 | 0.1 to 1 | < 0.1 | 1 to 5 | 0.1 to 1 | < 0.1 | 0.1 to 1 | 0.1 to 1 | 
CN(C)CCCNC(=O)c1ccc(-c2c(F)cnc3[nH]c4cnc(-c5cccnc5)cc4c23)cc1 [Example 10, N-[3-(dimethylamino)propyl]-4-[3-fluoro-6-(pyridin-3-yl)-9H-pyrrolo[2,3-b:5,4-c′]dipyridin-4-yl]benzamide] | < 0.1 | 0.1 to 1 | < 0.1 | 1 to 5 | 1 to 5 | 0.1 to 1 | 0.1 to 1 | 0.1 to 1 | 
O=C(NC1CC1)c1ccc(-c2c(F)cnc3[nH]c4cnc(-c5cccnc5)cc4c23)cc1 [Example 11, N-cyclopropyl-4-[3-fluoro-6-(pyridin-3-yl)-9H-pyrrolo[2,3-b:5,4-c′]dipyridin-4-yl]benzamide] | < 0.1 | 1 to 5 | 0.1 to 1 |  |  |  |  |  | 0.1 to 1
CN(C)CCNC(=O)c1cccc(-c2c(F)cnc3[nH]c4cnc(-c5cccnc5)cc4c23)c1 [Example 12, N-[2-(dimethylamino)ethyl]-3-[3-fluoro-6-(pyridin-3-yl)-9H-pyrrolo[2,3-b:5,4-c′]dipyridin-4-yl]benzamide] | < 0.1 | 1 to 5 | < 0.1 | 1 to 5 | 1 to 5 | 0.1 to 1 | 1 to 5 | 0.1 to 1 | 
O=C(NCCCN1CCCC1)c1ccc(-c2c(F)cnc3[nH]c4cnc(-c5cccnc5)cc4c23)cc1 [Example 20, 4-[3-fluoro-6-(pyridin-3-yl)-9H-pyrrolo[2,3-b:5,4-c′]dipyridin-4-yl]-N-[3-(pyrrolidin-1-yl)propyl]benzamide] | < 0.1 | 0.1 to 1 | < 0.1 | 0.1 to 1 | 0.1 to 1 | 0.1 to 1 |  | 0.1 to 1 | 
O=C(NCCN1CCOCC1)c1ccc(-c2c(F)cnc3[nH]c4cnc(-c5cccnc5)cc4c23)cc1 [Example 21, 4-[3-fluoro-6-(pyridin-3-yl)-9H-pyrrolo[2,3-b:5,4-c′]dipyridin-4-yl]-N-[2-(morpholin-4-yl)ethyl]benzamide] | < 0.1 | 1 to 5 | < 0.1 | 0.1 to 1 | 1 to 5 | 0.1 to 1 | 0.1 to 1 | 0.1 to 1 | 
